# According to patent US20050209157A1, “Short bioactive peptides and methods for their use” (priority 2001, published 2005):
# No end group written: not given here.
# Test system: S. aureus (MRSA)
# Test: not given
# Type: cell-based, Staphylococcus aureus
# Conditions: Table 15, strain SAP0017; in µg/mL
row,Substance,MIC S. aureus SAP0017
1,FAFGKGIGKIGKKGL-NH2 [P138 (100)],>128
2,FAFGKGIGKVGKKLL-NH2 [P133 (95)],>128
3,FAKKLAKKLAKAAL-NH2 [P76 (52)],>128
4,VALALKALKKL-NH2 [P180 (141)],>128
5,FAKLWAKLAKKL-NH2 [P136 (98)],>128
6,FAKLLAKLAKKEL-NH2 [P126 (88)],>128
7,FAKLLAKKLL-NH2 [P57 (37)],>128
8,FAKIIAKIAKKI-NH2 [P143 (105)],>128
9,FALLKALKKAL-NH2 [P171 (132)],>128

# Test system: S. epidermidis C621
# Test: not given
# Type: cell-based, Staphylococcus epidermidis
# Conditions: Table 15
row,Substance,MIC S. epidermidis C621 [mg/L]
1,FAFGKGIGKIGKKGL-NH2 [P138 (100)],> 128
2,FAFGKGIGKVGKKLL-NH2 [P133 (95)],> 128
3,FAKKLAKKLAKAAL-NH2 [P76 (52)],> 128
4,VALALKALKKL-NH2 [P180 (141)],> 128
5,FAKLWAKLAKKL-NH2 [P136 (98)],128
6,FAKLLAKLAKKEL-NH2 [P126 (88)],> 128
7,FAKLLAKKLL-NH2 [P57 (37)],> 128
8,FAKIIAKIAKKI-NH2 [P143 (105)],> 128
9,FALLKALKKAL-NH2 [P171 (132)],128

# Test system: E. coli UB1005
# Test: not given
# Type: cell-based, Escherichia coli
# Conditions: Table 14
row,Substance,MIC E. coli UB1005 [mg/L]
1,FAFGKGIGKIGKKGL-NH2 [P138 (100)],> 128
2,FAFGKGIGKVGKKLL-NH2 [P133 (95)],> 128
3,FAKKLAKKLAKAAL-NH2 [P76 (52)],16
4,VALALKALKKL-NH2 [P180 (141)],> 128
5,FAKLWAKLAKKL-NH2 [P136 (98)],128
6,FAKLLAKLAKKEL-NH2 [P126 (88)],> 128
7,FAKLLAKKLL-NH2 [P57 (37)],> 128
8,FAKIIAKIAKKI-NH2 [P143 (105)],> 128
9,FALLKALKKAL-NH2 [P171 (132)],32

# Test system: S. typhimurium 14028S
# Test: not given
# Type: cell-based, Salmonella typhimurium
# Conditions: Table 14
row,Substance,MIC S. typhimurium 14028S [mg/L]
1,FAFGKGIGKIGKKGL-NH2 [P138 (100)],> 128
2,FAFGKGIGKVGKKLL-NH2 [P133 (95)],> 128
3,FAKKLAKKLAKAAL-NH2 [P76 (52)],128
4,VALALKALKKL-NH2 [P180 (141)],> 128
5,FAKLWAKLAKKL-NH2 [P136 (98)],> 128
6,FAKLLAKLAKKEL-NH2 [P126 (88)],> 128
7,FAKLLAKKLL-NH2 [P57 (37)],> 128
8,FAKIIAKIAKKI-NH2 [P143 (105)],> 128
9,FALLKALKKAL-NH2 [P171 (132)],> 128

# Test system: P. aeruginosa H374
# Test: not given
# Type: cell-based, Pseudomonas aeruginosa
# Conditions: Table 14; in µg/mL
row,Substance,MIC P. aeruginosa H374
1,FAFGKGIGKIGKKGL-NH2 [P138 (100)],>128
2,FAFGKGIGKVGKKLL-NH2 [P133 (95)],>128
3,FAKKLAKKLAKAAL-NH2 [P76 (52)],64
4,VALALKALKKL-NH2 [P180 (141)],>128
5,FAKLWAKLAKKL-NH2 [P136 (98)],>128
6,FAKLLAKLAKKEL-NH2 [P126 (88)],>128
7,FAKLLAKKLL-NH2 [P57 (37)],>128
8,FAKIIAKIAKKI-NH2 [P143 (105)],>128
9,FALLKALKKAL-NH2 [P171 (132)],>128

# Test system: Pseudomonas aeruginosa H187
# Test: not given
# Type: cell-based
# Conditions: Table 15; in µg/mL
row,Substance,MIC P. aeruginosa H187
1,FAFGKGIGKIGKKGL-NH2 [P138 (100)],>128
2,FAFGKGIGKVGKKLL-NH2 [P133 (95)],>128
3,FAKKLAKKLAKAAL-NH2 [P76 (52)],>128
4,VALALKALKKL-NH2 [P180 (141)],>128
5,FAKLWAKLAKKL-NH2 [P136 (98)],>128
6,FAKLLAKLAKKEL-NH2 [P126 (88)],>128
7,FAKLLAKKLL-NH2 [P57 (37)],>128
8,FAKIIAKIAKKI-NH2 [P143 (105)],>128
9,FALLKALKKAL-NH2 [P171 (132)],>128

# Test system: Candida albicans 105
# Test: not given
# Type: cell-based
# Conditions: Table 15; in µg/mL
row,Substance,MIC C. albicans 105
1,FAFGKGIGKIGKKGL-NH2 [P138 (100)],>128
2,FAFGKGIGKVGKKLL-NH2 [P133 (95)],>128
3,FAKKLAKKLAKAAL-NH2 [P76 (52)],64
4,VALALKALKKL-NH2 [P180 (141)],>128
5,FAKLWAKLAKKL-NH2 [P136 (98)],64
6,FAKLLAKLAKKEL-NH2 [P126 (88)],>128
7,FAKLLAKKLL-NH2 [P57 (37)],128
8,FAKIIAKIAKKI-NH2 [P143 (105)],>128
9,FALLKALKKAL-NH2 [P171 (132)],>128

# Test system: BMKC
# Test: Anti-cancer assay, MTT, LD50
# Type: cell-based
# Conditions: BMKC cloned melanoma line, 24 hours with peptide
# Source text: (§1) Numbers are LD50 values (μg/mL).
row,Substance,LD50 BMKC [µg/mL]
1,"GIGKFLHAAKKFAKAFVAEIMNS-NH2 [P300, reference compound]",130

# Test system: H1299
# Test: Anti-cancer assay, MTT, LD50
# Type: cell-based
# Conditions: 24 hours with peptide, lung large cell carcinoma
# Source text: as §1
row,Substance,H1299 LD50 [µg/mL]
1,"GIGKFLHAAKKFAKAFVAEIMNS-NH2 [P300, reference compound]",60

# Test system: HeLaS3
# Test: Anti-cancer assay, MTT, LD50
# Type: cell-based
# Conditions: 24 hours with peptide, cervical carcinoma
# Source text: as §1
row,Substance,HeLaS3 LD50 [µg/mL]
1,"GIGKFLHAAKKFAKAFVAEIMNS-NH2 [P300, reference compound]",125

# Test system: MCF7
# Test: Anti-cancer assay, MTT, LD50
# Type: cell-based
# Conditions: MCF7 breast adenocarcinoma line, MTT, 24 hours with peptide
# Source text: as §1
row,Substance,LD50 MCF7 [µg/mL]
1,"GIGKFLHAAKKFAKAFVAEIMNS-NH2 [P300, reference compound]",22

# Test system: PC3
# Test: Anti-cancer assay, MTT, LD50
# Type: cell-based
# Conditions: 24 hours with peptide, prostate adenocarcinoma
# Source text: as §1
row,Substance,PC3 LD50 [µg/mL]
1,"GIGKFLHAAKKFAKAFVAEIMNS-NH2 [P300, reference compound]",45

# Test system: SW480
# Test: Anti-cancer assay, MTT, LD50
# Type: cell-based
# Conditions: SW480 colon adenocarcinoma line, 24 hours with peptide
# Source text: as §1
row,Substance,LD50 SW480 [µg/mL]
1,"GIGKFLHAAKKFAKAFVAEIMNS-NH2 [P300, reference compound]",60

# Test system: not listed separately
# Test: in vitro
# Type: cell-based, human
# Conditions: human, human red blood cells, pH 7, hemolytic assay, concentration at 50% hemolysis, 1 hour at 37° C.; read-out: LD50
row,Substance,HC50 at 1 h [µg/mL]
1,"GIGKFLHAAKKFAKAFVAEIMNS-NH2 [P300, reference compound]",250

# Test system: P. aeruginosa H374
# Test: not given
# Type: cell-based, Pseudomonas aeruginosa
# Conditions: MIC of chloramphenicol with peptide at ¼ MIC
# Method: (§2) The synergistic effects of the inventive peptides with either chloramphenicol or nalidixic acid against efflux mutants of Pseudomonas aeruginosa were investigated. The MIC values were determined for either nalidixic acid or chloramphenicol alone as baselines. Peptides were added at their ¼ MIC concentration, and the concentration of either nalidixic acid or chloramphenicol to arrive at the MIC was determined. […] The fractional inhibitory concentration (FIC) index was used to determine synergy between peptides and antibiotics. Two-fold serial dilutions of antibiotic were tested in the presence of a constant amount of peptide, equal to one quarter of peptide MIC. The FIC index was determined as follows: FIC=0.25+MICantibiotic in combination/MICantibiotic alone. An FIC index of 0.5 or less is considered as synergy.
row,Substance,MIC Cm-comb. [mg/L]
1,"GIGKFLHAAKKFAKAFVAEIMNS-NH2 [P300, reference compound]",16

# Same assay, conditions: MIC of nalidixic acid with peptide at ¼ MIC
row,Substance,MIC Nal-comb. [mg/L]
1,"GIGKFLHAAKKFAKAFVAEIMNS-NH2 [P300, reference compound]",312

# Test system: P. aeruginosa
# Test: not given
# Type: cell-based, Pseudomonas aeruginosa
# Conditions: P. aeruginosa H744; MIC of nalidixic acid with peptide at ¼ MIC
# Method: as §2
row,Substance,MIC Nal-comb. [mg/L]
1,"GIGKFLHAAKKFAKAFVAEIMNS-NH2 [P300, reference compound]",156

# Test system: WI38
# Test: not given
# Conditions: MTT, 24 hours with peptide; normal fibroblast line
row,Substance,WI38 LD50 [µg/mL]
1,"GIGKFLHAAKKFAKAFVAEIMNS-NH2 [P300, reference compound]",52

# Test system: not listed separately
# Test: in vitro
# Conditions: human, WI38 normal lung fibroblast cells, LD50 WI38, WI38 normal lung fibroblast line, MTT, 24 hours with peptide
row,Substance,CC50 at 24 h [mg/L]
1,"GIGKFLHAAKKFAKAFVAEIMNS-NH2 [P300, reference compound]",52
